Measured values taken from patent US9902736B2, “1-oxo/acylation-14-acylated oridonin derivative, preparation method therefor and application thereof” (HANGZHOU BENSHENG PHARMACEUTICAL CO., LTD., priority 2012, dated 2018).
In brackets after ≈: the same amount, converted by molar mass.

Assays:
CaEs-17 = test: Solid tumor cell growth inhibition, MTT, 72 h; assay type: cell-based; conditions: Homo sapiens, CaEs17
Method: (§1) 6000 well-growing human solid tumor cells were obtained and inoculated into wells of a 96-well cell culture plate. The culture medium was DMEM High Glucose cell culture medium containing 10% fetal bovine serum. The plate was placed in a carbon dioxide cell incubator (5% CO2) at 37° C. and incubated for 24 hours. After added with 1-oxo/acylated-14-acylated oridonin derivatives of different concentration and mixed uniformly, the plate was placed in a carbon dioxide cell incubator (5% CO2) at 37° C. and incubated for 72 hours. Then the viable cell concentration was determined by MTT method.

PANC-1 = test: Solid tumor cell growth inhibition, MTT, 72 h; assay type: cell-based; conditions: Homo sapiens
Method: as §1

RKO = test: Solid tumor cell growth inhibition, MTT, 72 h; assay type: cell-based; conditions: Homo sapiens
Method: as §1

U87-MG = test: Solid tumor cell growth inhibition, MTT, 72 h; assay type: cell-based; conditions: Homo sapiens, U-87 MG
Method: as §1

A549 = test: Solid tumor cell growth inhibition, MTT, 72 h; assay type: cell-based; conditions: Homo sapiens
Method: as §1

PC-3 = test: Solid tumor cell growth inhibition, MTT, 72 h; assay type: cell-based; conditions: Homo sapiens
Method: as §1

MG-63 = test: Solid tumor cell growth inhibition, MTT, 72 h; assay type: cell-based; conditions: Homo sapiens
Method: as §1

SK-OV-3 = test: Solid tumor cell growth inhibition, MTT, 72 h; assay type: cell-based; conditions: Homo sapiens, SK-OV-3, 72 h, MTT; for IC50: read-out: IC50 SK-OV-3; for IC90: read-out: IC90 SK-OV-3
Method: as §1

Becap-37 = test: Solid tumor cell growth inhibition, MTT, 72 h; assay type: cell-based; conditions: Homo sapiens
Method: as §1

Hep G2 = test: Solid tumor cell growth inhibition, MTT, 72 h; assay type: cell-based; conditions: Homo sapiens, HepG2
Method: as §1

H9 = test: Leukemia cell growth inhibition, MTT, 72 h; assay type: cell-based, human; conditions: Homo sapiens, H9; 72 h, MTT
Excerpt: (§2) Leukemia cell lines: leukemia cell lines: K562/adr (drug-resistant, chronic myeloid leukemia, CML), NB4 (acute promyelocytic leukemia, AML), Kasumi-1 (acute myeloid leukemia M2 type, AML-M2), Jurkat (acute lymphoblastic leukemia, ALL), all of which were donated by Cancer Research Institute of Zhejiang University, China; and H9 (acute lymphoblastic leukemia, ALL), which was purchased from China Center for Type Culture Collection.
(§3) 6000 well-growing leukemia cells were obtained and inoculated into wells of a 96-well cell culture plate. […] On the next day, the 1-oxo/acylated-14-acylated oridonin derivatives of different concentrations were added and mixed uniformly. The plate was placed in a carbon dioxide cell incubator (5% CO2) at 37° C. and was incubated for 72 hours. Then the viable cell concentration was determined by MTT method.

NB4 = test: Leukemia cell growth inhibition, MTT, 72 h; assay type: cell-based, human; conditions: Homo sapiens, NB-4; 72 h, MTT
Excerpt: as §2, §3

Jurkat = test: Leukemia cell growth inhibition, MTT, 72 h; assay type: cell-based, human; conditions: for IC50 / IC90: Homo sapiens, Jurkat, 72 h, MTT
Excerpt: as §2, §3

RPMI 8226 = test: Multiple myeloma cell growth inhibition, MTT, 72 h; assay type: cell-based; conditions: Homo sapiens
Method: Multiple myeloma cell lines: RPMI8226 (multiple myeloma), purchased from Fuxiang Bio-tech Co. Ltd., Shanghai, China.
6000 well-growing cells were obtained and inoculated into wells of a 96-well cell culture plate. […] On the next day, the 1-oxo/acylated-14-acylated oridonin derivatives of different concentrations were added and mixed uniformly. The plate was placed in a carbon dioxide cell incubator (5% CO2) at 37° C. and incubated for 72 hours. Then the viable cell concentration was determined by MTT method.

MGC-803 = test: Solid tumor cell growth inhibition, MTT, 72 h; assay type: cell-based, human; conditions: Homo sapiens, MGC-803; 72 h, MTT
Method: as §1

Hep-2 = test: Solid tumor cell growth inhibition, MTT, 72 h; assay type: cell-based, human; conditions: Homo sapiens, HEp-2; 72 h, MTT
Method: as §1

Hela = test: Solid tumor cell growth inhibition, MTT, 72 h; assay type: cell-based, human; conditions: Homo sapiens, HeLa; 72 h, MTT
Method: as §1

CNE = test: Solid tumor cell growth inhibition, MTT, 72 h; assay type: cell-based, human; conditions: for IC50 / IC90: Homo sapiens, CNE, 72 h, MTT
Method: as §1

Kasumi-1 = test: Leukemia cell growth inhibition, MTT, 72 h; assay type: cell-based; conditions: Homo sapiens
Excerpt: as §2, §3

K562/ADR = test: Leukemia cell growth inhibition, MTT, 72 h; assay type: cell-based; conditions: Homo sapiens
Excerpt: as §2, §3

`C=C1C(=O)[C@]23[C@H](OC(=O)c4ccc(C)cc4)[C@H]1CC[C@H]2[C@@]12CO[C@@]3(O)[C@@H](O)[C@@H]1C(C)(C)CCC2=O` [BS-OR-004] gave an IC50 (CaEs-17) of 0.88 µg/mL (≈ 1.83 µM), an IC90 (CaEs-17) of 4.58 µg/mL (≈ 9.53 µM) and an IC50 (PANC-1) of 1.31 µg/mL (≈ 2.73 µM). It also gave an IC90 (PANC-1) of 8.24 µg/mL (≈ 17.1 µM), an IC50 (RKO) of 0.31 µg/mL (≈ 0.645 µM) and an IC90 (RKO) of 0.87 µg/mL (≈ 1.81 µM). The IC50 (U87-MG) was 0.8 µg/mL (≈ 1.66 µM), the IC90 (U87-MG) was 3.24 µg/mL (≈ 6.74 µM) and the IC50 (A549) was 1.71 µg/mL (≈ 3.56 µM). The IC90 (A549) was 4.9 µg/mL (≈ 10.2 µM), the IC50 (PC-3) was 1.45 µg/mL (≈ 3.02 µM) and the IC90 (PC-3) was 3.94 µg/mL (≈ 8.2 µM). The IC50 (MG-63) was 0.33 µg/mL (≈ 0.687 µM), the IC90 (MG-63) was 0.87 µg/mL (≈ 1.81 µM) and the IC50 (SK-OV-3) was 1.45 µg/mL (≈ 3.02 µM). The IC90 (SK-OV-3) was 3.94 µg/mL (≈ 8.2 µM), the IC50 (Becap-37) was 0.66 µg/mL (≈ 1.37 µM) and the IC90 (Becap-37) was 3.3 µg/mL (≈ 6.87 µM). The IC50 (Hep G2) was 0.85 µg/mL (≈ 1.77 µM), the IC90 (Hep G2) was 7.84 µg/mL (≈ 16.3 µM) and the IC50 (H9) was 0.34 µg/mL (≈ 0.708 µM). For the same molecule, the IC90 (H9) was 0.83 µg/mL (≈ 1.73 µM), the IC50 (NB4) was 0.13 µg/mL (≈ 0.271 µM) and the IC90 (NB4) was 0.76 µg/mL (≈ 1.58 µM). The IC50 (Jurkat) was 0.62 µg/mL (≈ 1.29 µM), the IC90 (Jurkat) was 2.7 µg/mL (≈ 5.62 µM) and the IC50 (RPMI 8226) was 0.31 µg/mL (≈ 0.645 µM). For the same molecule, the IC90 (RPMI 8226) was 1.77 µg/mL (≈ 3.68 µM), the IC50 (MGC-803) was 0.65 µg/mL (≈ 1.35 µM) and the IC90 (MGC-803) was 4.88 µg/mL (≈ 10.2 µM). For the same molecule, the IC50 (Hep-2) was 1.38 µg/mL (≈ 2.87 µM), the IC90 (Hep-2) was 6.79 µg/mL (≈ 14.1 µM) and the IC50 (Hela) was 1.28 µg/mL (≈ 2.66 µM). It also gave an IC90 (Hela) of 3.87 µg/mL (≈ 8.05 µM), an IC50 (CNE) of 0.95 µg/mL (≈ 1.98 µM) and an IC90 (CNE) of 4.67 µg/mL (≈ 9.72 µM). It also gave an anti-CNE activity increased (CNE; in comparison with oridonin) of about 6 fold, an IC50 (Kasumi-1) of 0.41 µg/mL (≈ 0.853 µM) and an IC90 (Kasumi-1) of 1.68 µg/mL (≈ 3.5 µM). It also gave an IC50 (K562/ADR) of 0.41 µg/mL (≈ 0.853 µM) and an IC90 (K562/ADR) of 1.72 µg/mL (≈ 3.58 µM).

For `C=C1C(=O)[C@]23[C@H](OC(=O)c4ccc(OC)cc4)[C@H]1CC[C@H]2[C@@]12CO[C@@]3(O)[C@@H](O)[C@@H]1C(C)(C)CCC2=O` [BS-OR-005], the IC50 (CaEs-17) was 0.81 µg/mL (≈ 1.63 µM), the IC90 (CaEs-17) was 3.03 µg/mL (≈ 6.1 µM) and the IC50 (PANC-1) was 1.26 µg/mL (≈ 2.54 µM). It also gave an IC90 (PANC-1) of 4.91 µg/mL (≈ 9.89 µM), an IC50 (RKO) of 0.31 µg/mL (≈ 0.624 µM) and an IC90 (RKO) of 0.84 µg/mL (≈ 1.69 µM). It also gave an IC50 (U87-MG) of 0.7 µg/mL (≈ 1.41 µM), an IC90 (U87-MG) of 2.16 µg/mL (≈ 4.35 µM) and an IC50 (A549) of 1.71 µg/mL (≈ 3.44 µM). The IC90 (A549) was 4.31 µg/mL (≈ 8.68 µM), the IC50 (PC-3) was 1.22 µg/mL (≈ 2.46 µM) and the IC90 (PC-3) was 3.16 µg/mL (≈ 6.36 µM). It also gave an IC50 (MG-63) of 0.28 µg/mL (≈ 0.564 µM), an IC90 (MG-63) of 0.75 µg/mL (≈ 1.51 µM) and an IC50 (SK-OV-3) of 1.22 µg/mL (≈ 2.46 µM). It also gave an IC90 (SK-OV-3) of 3.16 µg/mL (≈ 6.36 µM), an IC50 (Becap-37) of 0.7 µg/mL (≈ 1.41 µM) and an IC90 (Becap-37) of 2.78 µg/mL (≈ 5.6 µM). The IC50 (Hep G2) was 0.84 µg/mL (≈ 1.69 µM), the IC90 (Hep G2) was 5.27 µg/mL (≈ 10.6 µM) and the IC50 (H9) was 0.38 µg/mL (≈ 0.765 µM). For the same molecule, the IC90 (H9) was 0.92 µg/mL (≈ 1.85 µM), the IC50 (NB4) was 0.07 µg/mL (≈ 0.141 µM) and the IC90 (NB4) was 0.49 µg/mL (≈ 0.987 µM). For the same molecule, the IC50 (Jurkat) was 0.44 µg/mL (≈ 0.886 µM), the IC90 (Jurkat) was 2.88 µg/mL (≈ 5.8 µM) and the “anti-Jurkat cell line activity increased” value (Jurkat; as compared with oridonin) was about 4 fold. It also gave an IC50 (RPMI 8226) of 0.26 µg/mL (≈ 0.524 µM), an IC90 (RPMI 8226) of 0.96 µg/mL (≈ 1.93 µM) and an IC50 (MGC-803) of 0.7 µg/mL (≈ 1.41 µM). It also gave an IC90 (MGC-803) of 5.4 µg/mL (≈ 10.9 µM), an IC50 (Hep-2) of 1.3 µg/mL (≈ 2.62 µM) and an IC90 (Hep-2) of 5.6 µg/mL (≈ 11.3 µM). For the same molecule, the IC50 (Hela) was 1.16 µg/mL (≈ 2.34 µM), the IC90 (Hela) was 3.4 µg/mL (≈ 6.85 µM) and the IC50 (CNE) was 1.09 µg/mL (≈ 2.2 µM). For the same molecule, the IC90 (CNE) was 4.45 µg/mL (≈ 8.96 µM), the IC50 (Kasumi-1) was 0.43 µg/mL (≈ 0.866 µM) and the IC90 (Kasumi-1) was 1.05 µg/mL (≈ 2.11 µM). The IC50 (K562/ADR) was 0.4 µg/mL (≈ 0.806 µM) and the IC90 (K562/ADR) was 1.44 µg/mL (≈ 2.9 µM).
